Source: patent publication US4471131A, “Novel silyl esters of N-phosphonomethylglycine” (Monsanto Company, priority 1983, dated 1984)

Columns and labels:
Assay in all cases: post-emergence herbicidal activity, greenhouse
Type in all cases: in vivo
Velvetleaf = system: Velvetleaf
Source text: (§1) A good grade of top soil is placed in aluminum pans having holes in the bottom and compacted to a depth of 0.95 to 1.27 cm. from the top of the pan. A predetermined number of seeds of each of several dicotyledonous and moncotyledonous annual plant species and/or vegetative propagules for the perennial plant species were placed on the soil and pressed into the soil surface. The seeds and/or vegetative propagules are covered with soil and leveled. The pans are then placed on a sand bench in the greenhouse and watered from below as needed. After the plants reach the desired age (two to three weeks), each pan, except for the control pans, is removed individually to a spraying chamber and sprayed by means of an atomizer at the rates noted. In the spray solution is an amount of an emulsifying agent mixture to give a spray solution or suspension which contains about 0.4% by weight of the emulsifier. The spray solution or suspension contains a sufficient amount of the candidate chemical in order to give application rates corresponding to those set forth in the tables. The pans were returned to the greenhouse and watered as before and the injury to the plants as compared to the control is observed at approximately two and four weeks and the results recorded. In the tables, WAT means "weeks after treatment."
(§2) The post-emergent herbicidal activity index used in Tables II and III is as follows:
(§3) The plant species utilized in these tests are identified by letter in accordance with the following legend: […]

Barnyardgrass = system: Barnyardgrass
Source text: as §1, §2, §3

Yellow Nutsedge = conditions: Table II, 11.2 kg/h, formulated immediately prior to treatment
Source text: as §1, §2, §3

Cocklebur = system: Cocklebur
Source text: as §1, §2, §3

Morningglory = system: Morningglory
Source text: as §1, §2, §3

Soybean = conditions: Table III, 2 WAT
Source text: as §1, §2, §3

Canada Thistle = conditions: Table II, 11.2 kg/h, formulated immediately prior to treatment
Source text: as §1, §2, §3

Common Lambsquarters = system: Common Lambsquarters
Source text: as §1, §2, §3

Downy Brome = system: Downy Brome
Source text: as §1, §2, §3

Wild Buckwheat = conditions: Table III, 2 WAT
Source text: as §1, §2, §3

Rice = conditions: Table III, 2 WAT
Source text: as §1, §2, §3

Quackgrass = conditions: Table II, 11.2 kg/h, formulated immediately prior to treatment
Source text: as §1, §2, §3

Hemp Sesbania = conditions: Table III, 2 WAT
Source text: as §1, §2, §3

Sugar Beet = conditions: Table III, 2 WAT
Source text: as §1, §2, §3

Panicum Spp = conditions: Table III, 2 WAT
Source text: as §1, §2, §3

Pennsylvania Smartweed = system: Pennsylvania Smartweed
Source text: as §1, §2, §3

Large Crabgrass = conditions: Table III, 2 WAT
Source text: as §1, §2, §3

Johnsongrass = conditions: Table II, 11.2 kg/h, formulated immediately prior to treatment
Source text: as §1, §2, §3

[1] = Table II, 2 WAT, 11.2 kg/h, formulated immediately prior to treatment
[2] = Table II, 4 WAT, 11.2 kg/h, formulated immediately prior to treatment

With `CC(C)OC(=O)CNCP(=O)(O[Si](c1ccccc1)(c1ccccc1)C(C)(C)C)O[Si](c1ccccc1)(c1ccccc1)C(C)(C)C` [Ex. 1] the “Plant Response Index (C)” value (Velvetleaf; [1]) was 0 (0-24% inhibition), the “Plant Response Index (C)” value (Velvetleaf; [2]) was 1 (25-49% inhibition) and the “Plant Response Index (C)” value (Velvetleaf; Table III, 2 WAT, 1.1 kg/h) was 0 (0-24% inhibition). For the same compound, the “Plant Response Index (C)” value (Velvetleaf; Table III, 2 WAT, 5.6 kg/h) was 2 (50-74% inhibition), the “Plant Response Index (K)” value (Barnyardgrass; [1]) was 2 (50-74% inhibition) and the “Plant Response Index (K)” value (Barnyardgrass; [2]) was 3 (75-99% inhibition). For the same compound, the “Plant Response Index (K)” value (Barnyardgrass; Table III, 2 WAT, 1.1 kg/h) was 1 (25-49% inhibition), the “Plant Response Index (K)” value (Barnyardgrass; Table III, 2 WAT, 5.6 kg/h) was 4 (100% inhibition) and the “Plant Response Index (G)” value (Yellow Nutsedge; 2 WAT) was 1 (25-49% inhibition). For the same compound, the “Plant Response Index (G)” value (Yellow Nutsedge; 4 WAT) was 2 (50-74% inhibition), the “Plant Response Index (B)” value (Cocklebur; [1]) was 1 (25-49% inhibition) and the “Plant Response Index (B)” value (Cocklebur; [2]) was 1 (25-49% inhibition). The “Plant Response Index (B)” value (Cocklebur; Table III, 2 WAT, 1.1 kg/h) was 0 (0-24% inhibition), the “Plant Response Index (B)” value (Cocklebur; Table III, 2 WAT, 5.6 kg/h) was 2 (50-74% inhibition) and the “Plant Response Index (D)” value (Morningglory; [1]) was 1 (25-49% inhibition). For the same compound, the “Plant Response Index (D)” value (Morningglory; [2]) was 2 (50-74% inhibition), the “Plant Response Index (D)” value (Morningglory; Table III, 2 WAT, 1.1 kg/h) was 0 (0-24% inhibition) and the “Plant Response Index (D)” value (Morningglory; Table III, 2 WAT, 5.6 kg/h) was 2 (50-74% inhibition). The “Plant Response Index (L)” value (Soybean; 1.1 kg/h) was 0 (0-24% inhibition), the “Plant Response Index (L)” value (Soybean; 5.6 kg/h) was 1 (25-49% inhibition) and the “Plant Response Index (A)” value (Canada Thistle; 2 WAT) was 0 (0-24% inhibition). The “Plant Response Index (A)” value (Canada Thistle; 4 WAT) was 1 (25-49% inhibition), the “Plant Response Index (E)” value (Common Lambsquarters; [1]) was 0 (0-24% inhibition) and the “Plant Response Index (E)” value (Common Lambsquarters; [2]) was 0 (0-24% inhibition). The “Plant Response Index (E)” value (Common Lambsquarters; Table III, 2 WAT, 1.1 kg/h) was 0 (0-24% inhibition), the “Plant Response Index (E)” value (Common Lambsquarters; Table III, 2 WAT, 5.6 kg/h) was 3 (75-99% inhibition) and the “Plant Response Index (J)” value (Downy Brome; [1]) was 1 (25-49% inhibition). For the same compound, the “Plant Response Index (J)” value (Downy Brome; [2]) was 1 (25-49% inhibition), the “Plant Response Index (J)” value (Downy Brome; Table III, 2 WAT, 1.1 kg/h) was 0 (0-24% inhibition) and the “Plant Response Index (J)” value (Downy Brome; Table III, 2 WAT, 5.6 kg/h) was 3 (75-99% inhibition). For the same compound, the “Plant Response Index (Q)” value (Wild Buckwheat; 1.1 kg/h) was 0 (0-24% inhibition), the “Plant Response Index (Q)” value (Wild Buckwheat; 5.6 kg/h) was 3 (75-99% inhibition) and the “Plant Response Index (O)” value (Rice; 1.1 kg/h) was 0 (0-24% inhibition). The “Plant Response Index (O)” value (Rice; 5.6 kg/h) was 3 (75-99% inhibition), the “Plant Response Index (H)” value (Quackgrass; 2 WAT) was 0 (0-24% inhibition) and the “Plant Response Index (H)” value (Quackgrass; 4 WAT) was 1 (25-49% inhibition). The “Plant Response Index (R)” value (Hemp Sesbania; 1.1 kg/h) was 0 (0-24% inhibition), the “Plant Response Index (R)” value (Hemp Sesbania; 5.6 kg/h) was 2 (50-74% inhibition) and the “Plant Response Index (M)” value (Sugar Beet; 1.1 kg/h) was 1 (25-49% inhibition). The “Plant Response Index (M)” value (Sugar Beet; 5.6 kg/h) was 3 (75-99% inhibition), the “Plant Response Index (S)” value (Panicum Spp; 1.1 kg/h) was 0 (0-24% inhibition) and the “Plant Response Index (S)” value (Panicum Spp; 5.6 kg/h) was 3 (75-99% inhibition). The “Plant Response Index (F)” value (Pennsylvania Smartweed; [1]) was 3 (75-99% inhibition), the “Plant Response Index (F)” value (Pennsylvania Smartweed; [2]) was 3 (75-99% inhibition) and the “Plant Response Index (F)” value (Pennsylvania Smartweed; Table III, 2 WAT, 1.1 kg/h) was 0 (0-24% inhibition). The “Plant Response Index (F)” value (Pennsylvania Smartweed; Table III, 2 WAT, 5.6 kg/h) was 3 (75-99% inhibition), the “Plant Response Index (T)” value (Large Crabgrass; 1.1 kg/h) was 2 (50-74% inhibition) and the “Plant Response Index (T)” value (Large Crabgrass; 5.6 kg/h) was 4 (100% inhibition). The “Plant Response Index (I)” value (Johnsongrass; 2 WAT) was 0 (0-24% inhibition) and the “Plant Response Index (I)” value (Johnsongrass; 4 WAT) was 2 (50-74% inhibition).
